Measured values taken from article PMC11409218, “Metal(triphenylphosphine)-atovaquone Complexes: Synthesis, Antimalarial Activity, and Suppression of Heme Detoxification” (Inorganic Chemistry, 2024).
Read-outs that look alike come from different tables or passages of the source.

What was measured:
[1] = tested on: J774 cells; assay: Cytotoxicity in mammalian cells (CellTiter-Glo), J774; type: cell-based; details: J774 murine macrophage line; 72 h drug incubation; mean of three experiments; read-out: mammalian cells CC50 (±SEM), J774
Experimental: Cell lines J774 and HepG2 were incubated with the drug for 72 h, the same time frame as employed to determine antimalarial activity. Cytotoxicity was evaluated in parallel with ATV as a representative parental drug, while doxorubicin was used as a standard cytotoxic drug. These experiments were also used to estimate the in vitro selectivity index (Table 2).
Doxorubicin chloridrate (Eurofarma, São Paulo, Brazil) was used as a positive control, while untreated cells were employed as negative controls. Bioluminescence readings were performed using a Filtermax F5Multi-Mode instrument (Molecular Devices, Sunnyvale, CA) using the CellTiter-Glo kit (Promega Corporation, Madison, USA). Three independent experiments were performed and CC50 values were calculated.

[2] = tested on: P. falciparum 3D7 (CQ-susceptible strain); assay: Antiplasmodial activity, asexual blood stages, HRP2 ELISA-based assay, 3D7 strain; type: cell-based, Plasmodium falciparum; details: for IC50: CQ-susceptible 3D7 strain, 72 h drug incubation, mean of five to seven experiments, read-out: P. falciparum IC50 (±SEM), 3D7
Source text: We determined the half-maximal inhibitory concentration (IC50) of the complexes against asexual blood stages of P. falciparum using CQ-susceptible and CQ-resistant strains (Table 2). […]. Two strains were selected for the tests: the CQ-susceptible 3D7 strain (isolated in West Africa; obtained from MR4, VA, USA), and the CQ-resistant W2 strain (isolated in Indochina; obtained from MR4, VA, USA). Both were maintained in culture in RPMI 1640 (Invitrogen, Paisley, UK), supplemented with 10% human serum (Abcys S.A. Paris, France), and buffered with 25 mM HEPES and 25 mM NaHCO3. Parasites were grown in A-positive human blood (Etablissement Français du Sang, Marseille, France) in controlled atmospheric conditions that consisted of 10% O2, 5% CO2, and 85% N2 at 37 °C with 95% humidity. […]
For in vitro isotopic microtests, 25 μL/well of antimalarial drug and 200 μL/well of parasitized red blood cell suspension (final parasitemia 0.5%, final hematocrit 1.5%) were distributed into 96-well plates. The plates were incubated for 72 h at 37 °C in 85% N2, 10% O2, 5% CO2. After freezing and then thawing, the hemolyzed cultures were homogenized by vortexing the plates. The drug susceptibility assay was performed using the HRP2 ELISA-based assay of the Malaria Ag Celisa kit (ref KM2159, Cellabs PTY LDT, Brookvale, Australia), as described previously.[72] […] […]. IC50 are expressed as means of at least 5 to 7 independent experiments.

[3] = Buffer–n-octanol distribution coefficient (shaking flask method)
Experimental: The distribution coefficient (Log D), a proxy parameter to estimate drug lipophilicity, was assessed for ATV and its metal complexes 1–3.
Buffer–n-octanol distribution coefficients were determined using the shaking flask method.[73] A UV–vis calibration curve was prepared in the 10–100 μM range in n-octanol. […] The concentration of complex in n-octanol was measured spectrophotometrically in order to determine values of D = [compound] (in n-octanol)/[compounds] (in buffer).[66],[67]

[4] = Interaction with ferriprotoporphyrin IX, spectroscopic titration of Soret band at 402 nm; type: binding; details: for log K (association constant of drug binding to hemin): pH 7.4, 40% aqueous DMSO, 1:1 complexation model, mean and SEM of three experiments; for hypochromic effect on the Soret band of hemin: until saturation point, 402 nm
Experimental: The association constants (Log K) of the compounds with hemin were determined at pH 7.4 using a 1:1 complexation model with the equation proposed by Egan et al.[52] for the nonlinear least-squares fitting (Figure 2, Table 2).
Following a procedure described in the literature,[52] the association constant (Log K) of the drugs with ferriprotoporphyrin IX was determined in 40% aqueous DMSO. A stock solution of hemin chloride was prepared by adding 3.5 mg hemin to 10 mL DMSO and adjusted to pH 7.5. A working solution of hemin in 40% DMSO was further prepared by mixing 140 μL hemin stock solution, 5 mL distilled water, 3.86 mL DMSO, and 1 mL 0.2 M Tris (tris(hydroxymethyl)aminomethane) buffer. Aliquots of compounds were added to this working hemin solution. Blank solutions containing only hemin or compounds were prepared to subtract the absorbance of the compounds. […] Binding affinity was determined using the equation A = (A0 + A∞K[C])/(1 + K[C]) for a 1:1 complexation model using nonlinear least-squares fitting, where A0 is the absorbance of Fe(III)PPIX, A∞ is the absorbance of the compound–hemin adduct at saturation, and K is the association constant. Three independent experiments were performed.

[5] = Solubility in solvents; type: physicochemical; details: for solubility in common organic solvents: dichloromethane, chloroform, dimethyl sulfoxide, acetone
Source text: (see Experimental Section). The chemical and physical characterization of ATV and the metal–ATV complexes are presented in the Supporting Information (Figures S1–S16). […] We attributed this band to a metal-to-ligand charge transfer (MLCT metal →π ATV naphthoquinone)[37] (Figures S3, S26–S28).

[6] = tested on: 3D7 strain of P. falciparum; assay: Antiplasmodial activity after preincubation of compounds in cell culture medium (Figure 3A); type: cell-based, Plasmodium falciparum; details: compound preincubated 0 or 72 h in culture medium
Experimental: To understand the reason for the difference in antiplasmodial potency between monodentate complex 2 and bidentate complexes 1 and 3, we incubated all three metal complexes in cell culture media for different times before assessing their antiplasmodial activity (Figure 3A). The percentage of parasite growth inhibition in samples of cell culture medium containing complex 2 was reduced after 72 h incubation in comparison to freshly prepared samples (0 h). […] We interpret the loss in antiplasmodial activity for complex 2 as potentially resulting from ligand exchange reactions occurring in the culture medium before drug internalization into parasite cells. This denotes a higher lability for the monodentate complex 2 than for the bidentate complexes 1 and 3.
Figure 3 (A) Antiplasmodial activity of the compounds against the 3D7 strain of P. falciparum. (B) Cytotoxicity against the J774 cell line. In both cases, the compounds were diluted in cell culture and incubated for 0 or 72 h before use in the assays. […] In panels A and C, parasite viability was measured by HRP2 ELISA-based assay, and IC50 values were calculated. In panel B, cell viability was measured by CellTiter-Glo, and IC50 values were calculated. In panels A and B, the values are the mean and standard deviation of two independent experiments, using each concentration of compounds in duplicate. In panel C, the values are the mean and standard deviation of one experiment, using each concentration of compounds in quadruplicate. *p < 0.05; indicating significant difference by Student’s t test.

Compound	CC50 [1]	IC50 [2]	log D pH 5 ([3]; pH 5)	log D pH 7 ([3]; pH 7)	log K (association constant of drug binding to hemin) [4]	hypochromic effect on the Soret band of hemin [4]	solubility in common organic solvents [5]	solubility in methanol, ethanol, and acetonitrile [5]	parasite growth inhibition after 72 h incubation in cell culture medium versus freshly prepared samples (0 h) [6]	Selectivity index (S.I.) ([2]; CC50 (J774)/IC50(3D7))	IC50 ([2]; Plasmodium falciparum)	logD at 18 h ([3]; pH 5)	logD at 18 h ([3]; pH 7)
[Ag(ATV)(PPh3)2] [Complex 1]	9500 ± 2200 nM	30.5 ± 9.7 nM	–2.12	0.08	4.33 ± 0.05	37%	had enough solubility	partially soluble	remained unchanged				
O=C1C(O)=C([C@H]2CC[C@H](c3ccc(Cl)cc3)CC2)C(=O)c2ccccc21 [ATV, atovaquone]					3.64 ± 0.10	42%				8250	2.4 ± 1.2 nM	-1.17	-1.15
[Au(ATV)(PPh3)]·2H2O [Complex 2]	10800 ± 3400 nM	8.1 ± 2.7 nM	–1.87	–1.71	4.46 ± 0.01	51%	had enough solubility	partially soluble	reduced				
O=C1C([O][Cu]([PH](c2ccccc2)(c2ccccc2)c2ccccc2)[PH](c2ccccc2)(c2ccccc2)c2ccccc2)=C([C@H]2CC[C@H](c3ccc(Cl)cc3)CC2)C(=O)c2ccccc21 [Complex 3, [Cu(ATV)(PPh3)2]]	36100 ± 3900 nM	30.7 ± 10.7 nM	–5.18	1.06	3.97 ± 0.01	38%	had enough solubility	partially soluble	remained unchanged				
